For orientation: IC50 means the midpoint of a concentration-inhibition curve.

Among the data in BindingDB's records for patent US10023539 (Bayer Pharma Aktiengesellschaft, 2018) are IC50 values, retold here.

This experiment concerns the target N-lysine methyltransferase SMYD2 (Homo sapiens, UniProt Q9NRG4). Briefly: Scintillation Proximity Assay (SPA) for Detection of SMYD2 Enzymatic Inhibition. The conditions noted are these: pH 9. How it is done: To this end, 100-fold concentrated compound solutions (in DMSO) were previously prepared by serial dilution (1:3.4) of 2 mM stocks in a clear low volume 384-well source microtiter plate (Greiner Bio-One), from which 50 nl of compound solutions were transferred into a white low volume test microtiter plate from the same supplier. […] The samples were then incubated for 15 min at 22° C. to allow pre-equilibration of the putative enzyme-inhibitor complexes before the start of the methylation reaction, which was initiated by the addition of 2.5 μl 2-fold concentrated solution (in assay buffer) of titrated S-Adenosyl-L-Methionine (3H-SAM, Perkin Elmer, final concentration: 60 nM) and p53 Peptide substrate (final concentration: 1.0 μM). The resulting mixture (5 μl final volume) was shortly centrifuged (2 min., 1500 rpm) and incubated at 22° C. during 30 min.
Background: Scintillation proximity formats need no separation of bound from free tracer.

Molecules are shown by their SMILES.

N-lysine methyltransferase SMYD2, sequence (Q9NRG4 whole entry): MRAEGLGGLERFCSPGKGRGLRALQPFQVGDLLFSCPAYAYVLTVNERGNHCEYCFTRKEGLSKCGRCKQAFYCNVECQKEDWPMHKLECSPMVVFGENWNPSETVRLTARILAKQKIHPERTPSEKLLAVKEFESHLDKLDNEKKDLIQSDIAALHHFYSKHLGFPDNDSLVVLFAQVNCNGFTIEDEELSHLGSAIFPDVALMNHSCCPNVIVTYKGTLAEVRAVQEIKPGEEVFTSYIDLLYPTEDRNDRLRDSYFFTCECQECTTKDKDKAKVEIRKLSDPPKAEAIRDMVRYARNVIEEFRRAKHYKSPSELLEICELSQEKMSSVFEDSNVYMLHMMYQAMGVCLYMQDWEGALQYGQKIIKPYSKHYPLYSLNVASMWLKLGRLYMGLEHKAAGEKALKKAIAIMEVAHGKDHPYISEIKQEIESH

The compound `CCN(C(=O)[C@@H](C)NC)C1CN(/C(=N\C#N)Nc2cccc(OC(F)F)c2)N=C1c1ccc(Cl)c(C)c1` (stereo partly specified) [US10023539, Example 37] gave an IC50 of 231 nM. This counts as sub-micromolar.
